For one experiment, the system named is Proteus vulgaris HX19. Description: Antimicrobial activity, agar dilution method (minimal inhibitory concentration). Type of experiment: cell-based. From the text:
(§1) The antimicrobial activities of the compounds obtained in the above Examples determined by the standard test method (i.e. agar dilution method) as well as those of the following penicillins as disclosed in U.S. Pat. No. 3,433,784 are shown in Table 2: [drawing 59]
Background: In agar dilution, organisms are placed on agar that contains the substance at set levels.

For experiment [1], the system named is Psudomonas aeruginosa 104. The experiment is described as above. Type of experiment: cell-based.
Excerpt: as §1

A further experiment relates to Pseudomonas. The conditions noted are these: prior art penicillins; cited from earlier work.

Values after ≈ are worked out from the molar mass of the structure shown.

The term MIC denotes the lowest concentration that inhibits growth of the organism. The low end stands for greater potency, the high end for weaker potency.

Turning to `CC1(C)S[C@@H]2[C@H](NC(=O)C(C(=O)O)c3ccccc3)C(=O)N2[C@H]1C(=O)O` (stereo partly shown) [Carbenicillin, reference compound], the MIC in the experiment with Proteus vulgaris HX19 was found to be 0.78 µg/mL (≈ 2.06 µM); in experiment [1], 50 µg/mL (≈ 132 µM). In the experiment with Pseudomonas, the anti-Pseudomonas activity result is “not sufficiently strong”.
Regarding `CC1(C)S[C@@H]2[C@H](NC(=O)C(c3ccccc3)S(=O)(=O)O)C(=O)N2[C@H]1C(=O)O` (stereo partly shown) [Sulfocillin], the anti-Pseudomonas activity result with Pseudomonas is “not sufficiently strong”.

The values are drawn from US4005075A, “Penicillins and their preparation” (Sumitomo Chemical Company, Limited, priority 1973, dated 1977).
